Here are results for 43 molecules from patent publication US20230075856A1, “CYCLIC SULFAMIDE COMPOUNDS FOR TREATMENT OF HBV” (Assembly Biosciences, Inc., priority 2018, published 2023).

By EC50 is commonly meant the concentration needed to bring the measured effect to its halfway point.

One assay has as its system HBV viral load production from HepAD38 cells. In words: Viral production from HepAD38 cells: viral load in supernatant by qPCR of the HBV core sequence. Type of assay: cell-based. As to conditions: 5 days incubation, qPCR of supernatant HBV DNA vs DMSO control, read-out: viral load lowering EC50 (Activity). In short, it runs like this: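 HepAD38 cells seeded at 50,000/well in tetracycline-free medium with 2% FBS, treated with compounds (final top concentration 10 μM) for 5 days at 37 °C. Supernatant HBV DNA quantified by TaqMan qPCR of core sequence against HBV DNA standards, relative to DMSO controls; EC50 by four-parameter logistic fit.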
In general terms: In qPCR the cycle at which signal appears reflects the starting amount.
For the molecule `CN1C(C(=O)Nc2ccc(F)c(Cl)c2)CC(C(=O)N[C@@H]2CCN(c3ccnc(Cl)c3)C2)NS1(=O)=O` (single isomer, unassigned) [1055-R-ISOMER-B], the EC50 was below 50 nM.

With “N3-(3-chloro-4-fluoro-phenyl)-2-methyl-1,1-dioxo-N5-[(5-phenylisoxazol-3-yl)methyl]- [1149-ISOMER-B]”, the EC50 lay within 100 to 10000 nM.

For the molecule `CN1C(C(=O)Nc2ccc(F)c(Cl)c2)CC(C(=O)NCc2nn(-c3ccccc3)c3ccccc23)NS1(=O)=O` (single isomer, unassigned) [1072-ISOMER-B, N3-(3-chloro-4-fluoro-phenyl)-2-methyl-1,1-dioxo-N5-[(1-phenylindazol-3-yl)methyl]-1,2,6-thiadiazinane-3,5-dicarboxamide], the concentration for a half-maximal effect (EC50) fell in the range of 100 to 10000 nM.

Consider `Cc1c(CNC(=O)C2CC(C(=O)Nc3ccc(F)c(Cl)c3)N(C)S(=O)(=O)N2)noc1-c1ccccc1` (single isomer, unassigned) [1150-ISOMER-B, N3-(3-chloro-4-fluoro-phenyl)-2-methyl-N5-[(4-methyl-5-phenyl-isoxazol-3-yl)methyl]-1,1-dioxo-1,2,6-thiadiazinane-3,5-dicarboxamide], for which the EC50 fell in the range of 100 to 10000 nM.

With `COC(=O)N1CCC(NC(=O)C2CC(C(=O)Nc3ccc(F)c(Cl)c3)N(C)S(=O)(=O)N2)CC1` (single isomer, unassigned) [Compound 477-ISOMER-B, methyl 4-[[5-[(3-chloro-4-fluoro-phenyl)carbamoyl]-6-methyl-1,1-dioxo-1,2,6-thiadiazinane-3-carbonyl]amino]piperidine-1-carboxylate], the EC50 fell in the range of 100 to 10000 nM.

Staying with this assay, now noted: Hepatitis B virus, HePAD38, 120 h, 5 days incubation, qPCR of supernatant HBV DNA vs DMSO control, read-out: viral load lowering EC50 (Activity).
Regarding `CN1C(C(=O)Nc2ccc(F)c(Cl)c2)CC(C(=O)NC(c2ccccc2)c2cnc(-c3ccccc3)s2)NS1(=O)=O` (stereo not shown) [Compound 1067], the EC50 was below 50 nM.

Consider `CC(NC(=O)C1CC(C(=O)Nc2ccc(F)c(Cl)c2)N(C)S(=O)(=O)N1)c1csc(-c2ccccc2Cl)n1` (stereo not shown) [Compound 1029], for which the EC50 lay within 100 to 10000 nM.

As for `CN1C(C(=O)Nc2ccc(F)c(Cl)c2)CC(C(=O)Nc2cn(-c3ccccc3)cn2)NS1(=O)=O` (stereo not shown) [Compound 1116], the half-maximal effective concentration (EC50) was 50 to 100 nM.

On to `CN1C(C(=O)Nc2ccc(F)c(Cl)c2)CC(C(=O)NCCCc2ccccc2)NS1(=O)=O` (stereo not shown) [Compound 726], for which the concentration giving a half-maximal response (EC50) was in the range of 50 to 100 nM.

In the case of `CN1C(C(=O)Nc2ccc(F)c(Cl)c2)CC(C(=O)NCc2nn(-c3ccccc3F)c3ccccc23)NS1(=O)=O` (stereo not shown) [Compound 1086], the EC50 was below 50 nM.

As for `Cc1c(CNC(=O)C2CC(C(=O)Nc3ccc(F)c(Cl)c3)N(C)S(=O)(=O)N2)cnn1C` (single isomer, unassigned) [Compound 740-ISOMER-A, N3-(3-chloro-4-fluoro-phenyl)-N5-[(1,5-dimethylpyrazol-4-yl)methyl]-2-methyl-1,1-dioxo-1,2,6-thiadiazinane-3,5-dicarboxamide], the EC50 is below 50 nM.

For `Cc1nc(-c2ccccc2Cl)sc1[C@H](NC(=O)C1CC(C(=O)Nc2ccc(F)c(Cl)c2)N(C)S(=O)(=O)N1)c1ccccc1` (single isomer, unassigned) [1100-ISOMER-A], the EC50 is below 50 nM.

Consider `CN1C(C(=O)Nc2ccc(F)c(Cl)c2)CC(C(=O)NC2CCCc3nc(-c4ccccc4)sc32)NS1(=O)=O` (stereo not shown) [Compound 917], for which the concentration giving a half-maximal response (EC50) was below 50 nM.

In the case of `CN1C(C(=O)Nc2ccc(F)c(Cl)c2)CC(C(=O)NCc2nn(-c3ccccc3F)c3ccccc23)NS1(=O)=O` (single isomer, unassigned) [1086-ISOMER-A, N3-(3-chloro-4-fluoro-phenyl)-N5-[[1-(2-fluorophenyl)indazol-3-yl]methyl]-2-methyl-1,1-dioxo-1,2,6-thiadiazinane-3,5-dicarboxamide], the EC50 is below 50 nM.

Turning to `Cc1cnc(CNC(=O)C2CC(C(=O)Nc3ccc(F)c(Cl)c3)N(C)S(=O)(=O)N2)s1` (stereo not shown) [Compound 687], the concentration giving a half-maximal response (EC50) is below 50 nM.

As for `CN1C(C(=O)Nc2ccc(F)c(Cl)c2)CC(C(=O)NCc2cnccn2)NS1(=O)=O` (stereo not shown) [Compound 704], the EC50 lay within 100 to 10000 nM.

`CN1C(C(=O)Nc2ccc(F)c(Cl)c2)CC(C(=O)NCc2cn(-c3ccccc3)nn2)NS1(=O)=O` (stereo not shown) [Compound 1147]: the EC50 is 50 to 100 nM.

Consider `Cc1ncc(CNC(=O)C2CC(C(=O)Nc3ccc(F)c(Cl)c3)N(C)S(=O)(=O)N2)s1` (stereo not shown) [Compound 495], for which the EC50 is below 50 nM.

As for `CN1C(C(=O)Nc2ccc(F)c(Cl)c2)CC(C(=O)NCc2cnc(-c3ccc(C#CCN4CCCCC4)cc3)s2)NS1(=O)=O` (stereo not shown) [Compound 946], the EC50 was 50 to 100 nM.

Take `CN1C(C(=O)Nc2ccc(F)c(Cl)c2)CC(C(=O)NCc2ccc(C(F)(F)F)cc2)NS1(=O)=O` (stereo not shown) [Compound 481]: the concentration for a half-maximal effect (EC50) was in the range of 50 to 100 nM.

As for `Cc1cnc(CNC(=O)C2CC(C(=O)Nc3ccc(F)c(C#N)c3)N(C)S(=O)(=O)N2)s1` (stereo not shown) [Compound 829], the EC50 was in the range of 100 to 10000 nM.

In the case of `CN1C(C(=O)Nc2ccc(F)c(C#N)c2)CC(C(=O)NC2CCN(C(=O)OC(C)(C)C)CC2)NS1(=O)=O` (stereo not shown) [Compound 868], the EC50 is below 50 nM.

As for `Cc1nc(-c2ccccc2F)sc1[C@H](NC(=O)C1CC(C(=O)Nc2ccc(F)c(Cl)c2)N(C)S(=O)(=O)N1)c1ccccc1` (single isomer, unassigned) [1101-ISOMER-C], the EC50 fell in the range of 100 to 10000 nM.

On to `CN1C(C(=O)Nc2ccc(F)c(Cl)c2)CC(C(=O)NCc2ccccc2-c2cn(C)cn2)NS1(=O)=O` (stereo not shown) [Compound 823], for which the EC50 is below 50 nM.

On to `CN1C(C(=O)Nc2ccc(F)c(Cl)c2)CC(C(=O)N[C@@H](c2ccccc2)c2cnc(-c3ccccc3)s2)NS1(=O)=O` (single isomer, unassigned) [1067-ISOMER-B], for which the concentration giving a half-maximal response (EC50) lay within 100 to 10000 nM.

As for `CN1C(C(=O)Nc2ccc(F)c(Cl)c2)CC(C(=O)NCc2cnc(-c3ccc(C#N)cc3F)s2)NS1(=O)=O` (single isomer, unassigned) [Compound 920-ISOMER-A, N3-(3-chloro-4-fluoro-phenyl)-N5-[[2-(4-cyano-2-fluoro-phenyl)thiazol-5-yl]methyl]-2-methyl-1,1-dioxo-1,2,6-thiadiazinane-3,5-dicarboxamide], the EC50 was in the range of 100 to 10000 nM.

As to `Cc1ncc(CNC(=O)C2CC(C(=O)Nc3ccc(F)c(Cl)c3)N(C)S(=O)(=O)N2)s1` (single isomer, unassigned) [Compound 495-ISOMER-B, N3-(3-chloro-4-fluoro-phenyl)-2-methyl-N5-[(2-methylthiazol-5-yl)methyl]-1,1-dioxo-1,2,6-thiadiazinane-3,5-dicarboxamide], the EC50 was below 50 nM.

In the case of `CN1C(C(=O)Nc2ccc(F)c(Cl)c2)CC(C(=O)NC2CCN(c3cc(CN4CCCCC4)ccn3)CC2)NS1(=O)=O` (stereo not shown) [Compound 975], the EC50 is below 50 nM.

On to `C[C@@H](NC(=O)C1CC(C(=O)Nc2ccc(F)c(C#N)c2)N(C)S(=O)(=O)N1)c1ccccc1` (stereo partly shown) [Compound 834], for which the half-maximal effective concentration (EC50) was 100 to 10000 nM.

As to `Cc1nc(-c2ccccc2)sc1CNC(=O)C1CC(C(=O)Nc2ccc(F)c(C#N)c2)N(C)S(=O)(=O)N1` (single isomer, unassigned) [1136-ISOMER-A, N3-(3-cyano-4-fluoro-phenyl)-2-methyl-N5-[(4-methyl-2-phenyl-thiazol-5-yl)methyl]-1,1-dioxo-1,2,6-thiadiazinane-3,5-dicarboxamide], the EC50 is below 50 nM.

For `Cc1csc(CNC(=O)C2CC(C(=O)Nc3ccc(F)c(Cl)c3)N(C)S(=O)(=O)N2)n1` (single isomer, unassigned) [Compound 686-ISOMER-A, N3-(3-chloro-4-fluoro-phenyl)-2-methyl-N5-[(4-methylthiazol-2-yl)methyl]-1,1-dioxo-1,2,6-thiadiazinane-3,5-dicarboxamide], the EC50 is 100 to 10000 nM.

On to `CN1C(C(=O)Nc2ccc(F)c(Cl)c2)CC(C(=O)NCC2CCN(c3ccccn3)CC2)NS1(=O)=O` (stereo not shown) [Compound 961], for which the EC50 lay in the range of 100 to 10000 nM.

Turning to `CN1C(C(=O)Nc2ccc(F)c(C#N)c2)CC(C(=O)NCc2cccc(Cl)c2)NS1(=O)=O` (stereo not shown) [Compound 837], the EC50 is below 50 nM.

With `CN1C(C(=O)Nc2ccc(F)c(Cl)c2)CC(C(=O)N[C@@H](c2ccccc2)c2cnc(Cl)s2)NS1(=O)=O` (single isomer, unassigned) [1066-ISOMER-D], the EC50 lay within 100 to 10000 nM.

On to `CN1C(C(=O)Nc2ccc(F)c(Cl)c2)CC(C(=O)Nc2ccc(-c3ccccc3)cc2)NS1(=O)=O` (stereo not shown) [Compound 711], for which the EC50 fell in the range of 100 to 10000 nM.

Take `COc1ccc2nc(CNC(=O)C3CC(C(=O)Nc4ccc(F)c(Cl)c4)N(C)S(=O)(=O)N3)sc2c1` (single isomer, unassigned) [1011-ISOMER-B, N3-(3-Chloro-4-fluoro-phenyl)-N5-[(6-methoxy-1,3-benzothiazol-2-yl)methyl]-2-methyl-1,1-dioxo-1,2,6-thiadiazinane-3,5-dicarboxamide]: the EC50 was below 50 nM.

Consider `CN1C(C(=O)Nc2ccc(F)c(Cl)c2)CC(C(=O)NCc2nccs2)NS1(=O)=O` (stereo not shown) [Compound 684], for which the 50% effective concentration (EC50) lay in the range of 100 to 10000 nM.

Consider `CN1C(C(=O)Nc2ccc(F)c(Cl)c2)CC(C(=O)Nc2cccc3cnccc23)NS1(=O)=O` (stereo not shown) [Compound 485], for which the half-maximal effective concentration (EC50) is below 50 nM.

`CN1C(C(=O)Nc2ccc(F)c(Cl)c2)CC(C(=O)NCc2ccccc2)NS1(=O)=O` (stereo not shown) [Compound 718]: the concentration for a half-maximal effect (EC50) was below 50 nM.

As to `CC(NC(=O)C1CC(C(=O)Nc2ccc(F)c(Cl)c2)N(C)S(=O)(=O)N1)c1ccccn1` (stereo not shown) [Compound 736], the EC50 lay within 50 to 100 nM.

Regarding `CN1C(C(=O)Nc2ccc(F)c(Cl)c2)CC(C(=O)NCCc2ccccc2)NS1(=O)=O` (stereo not shown) [Compound 732], the EC50 lay within 100 to 10000 nM.

Turning to `COc1cccc(CNC(=O)C2CC(C(=O)Nc3ccc(F)c(Cl)c3)N(C)S(=O)(=O)N2)c1` (single isomer, unassigned) [Compound 721-ISOMER-A, N3-(3-chloro-4-fluoro-phenyl)-N5-[(3-methoxyphenyl)methyl]-2-methyl-1,1-dioxo-1,2,6-thiadiazinane-3,5-dicarboxamide], the EC50 is below 50 nM.

For the molecule `CN1C(C(=O)Nc2ccc(F)c(Cl)c2)CC(C(=O)N[C@@H](c2ccccc2)c2cnc(-c3ccc(Cl)cc3)s2)NS1(=O)=O` (single isomer, unassigned) [1068-ISOMER-D], the EC50 was in the range of 100 to 10000 nM.
